Data set [1] addresses Clostridium perfringens neuraminidase. The class given is biochemical. The note with it: for IC50: pH 6.5, read-out: Solution phase IC50, Clostridium perfringens.
Data set [2] addresses T1, Vibrio cholerae neuraminidase (Vibrio cholerae serotype O1, UniProt P0C6E9).
T1 construct: purchased Sigma
Put plainly: biochemical. The class given is biochemical.

For data set [3], the target named is T2, Salmonella typhimurium neuraminidase (Salmonella typhimurium, UniProt P29768).
T2 construct: purchased Sigma
T2 sequence (P29768 whole entry): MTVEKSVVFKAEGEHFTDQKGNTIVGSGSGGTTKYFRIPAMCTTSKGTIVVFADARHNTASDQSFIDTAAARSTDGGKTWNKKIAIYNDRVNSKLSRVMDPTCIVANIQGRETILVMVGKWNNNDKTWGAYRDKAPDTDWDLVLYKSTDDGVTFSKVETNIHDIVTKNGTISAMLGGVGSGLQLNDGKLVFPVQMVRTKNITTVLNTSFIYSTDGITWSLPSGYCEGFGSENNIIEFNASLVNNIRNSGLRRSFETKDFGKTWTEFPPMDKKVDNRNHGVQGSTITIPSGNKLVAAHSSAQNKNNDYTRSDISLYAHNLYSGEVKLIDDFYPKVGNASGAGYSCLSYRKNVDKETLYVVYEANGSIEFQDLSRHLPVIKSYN
The data set can be described thus: biochemical. The data set is classed as biochemical.

Data set [4] concerns the target T2, Salmonella typhimurium neuraminidase. The following applies: value in brackets marked lit; read-out: Solution phase IC50, Salmonella typhimurium, literature value; cited from earlier work.
For data set [5], the target named is T3, α2,6-sialyltransferase (Rattus norvegicus, UniProt P13721).
T3 sequence (P13721 1-403): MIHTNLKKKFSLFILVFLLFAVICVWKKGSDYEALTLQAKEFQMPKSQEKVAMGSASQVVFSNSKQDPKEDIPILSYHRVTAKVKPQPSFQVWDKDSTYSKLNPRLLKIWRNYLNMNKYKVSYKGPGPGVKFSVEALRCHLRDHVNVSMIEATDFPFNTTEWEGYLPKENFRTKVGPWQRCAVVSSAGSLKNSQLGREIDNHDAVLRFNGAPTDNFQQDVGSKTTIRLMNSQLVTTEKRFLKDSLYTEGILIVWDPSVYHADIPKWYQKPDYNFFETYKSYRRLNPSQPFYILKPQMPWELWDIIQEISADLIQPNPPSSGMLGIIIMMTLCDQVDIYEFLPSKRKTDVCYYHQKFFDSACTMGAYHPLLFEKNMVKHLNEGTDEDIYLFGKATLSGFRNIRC
The note with it: read-out: KM value; literature (Gross et al. 1989); cited from earlier work.

In data set [6] the target is T3, α2,6-sialyltransferase. The data set can be described thus: Sialyltransferase competitive assay. The data set is classed as biochemical. More on the design: purchased Calbiochem.
Data set [7] concerns the target T3, α2,6-sialyltransferase. The data set can be described thus: Substrate recognition by sialyltransferase (FRET donor/acceptor). The class given is biochemical. The note with it: acceptor 0.2 mM, donor 0.1 mM, sialyltransferase 0.2 mU, FIG. 15. Details: purchased Calbiochem.
The next data set relates to α2,3-sialyltransferase. The description is as above. The class given is biochemical. The following applies: acceptor 0.2 mM, donor 0.1 mM, sialyltransferase 0.2 mU, FIG. 15.

Usually IC50 stands for the concentration at which inhibition is half-maximal. As usually defined, the Km is the concentration of substrate that gives half-maximal velocity. The term melting point denotes the temperature, or range, at which the solid turns liquid.

Like-named read-outs stand apart in the source and are kept apart here.

T1 sequence (P0C6E9 25-781 limits assumed): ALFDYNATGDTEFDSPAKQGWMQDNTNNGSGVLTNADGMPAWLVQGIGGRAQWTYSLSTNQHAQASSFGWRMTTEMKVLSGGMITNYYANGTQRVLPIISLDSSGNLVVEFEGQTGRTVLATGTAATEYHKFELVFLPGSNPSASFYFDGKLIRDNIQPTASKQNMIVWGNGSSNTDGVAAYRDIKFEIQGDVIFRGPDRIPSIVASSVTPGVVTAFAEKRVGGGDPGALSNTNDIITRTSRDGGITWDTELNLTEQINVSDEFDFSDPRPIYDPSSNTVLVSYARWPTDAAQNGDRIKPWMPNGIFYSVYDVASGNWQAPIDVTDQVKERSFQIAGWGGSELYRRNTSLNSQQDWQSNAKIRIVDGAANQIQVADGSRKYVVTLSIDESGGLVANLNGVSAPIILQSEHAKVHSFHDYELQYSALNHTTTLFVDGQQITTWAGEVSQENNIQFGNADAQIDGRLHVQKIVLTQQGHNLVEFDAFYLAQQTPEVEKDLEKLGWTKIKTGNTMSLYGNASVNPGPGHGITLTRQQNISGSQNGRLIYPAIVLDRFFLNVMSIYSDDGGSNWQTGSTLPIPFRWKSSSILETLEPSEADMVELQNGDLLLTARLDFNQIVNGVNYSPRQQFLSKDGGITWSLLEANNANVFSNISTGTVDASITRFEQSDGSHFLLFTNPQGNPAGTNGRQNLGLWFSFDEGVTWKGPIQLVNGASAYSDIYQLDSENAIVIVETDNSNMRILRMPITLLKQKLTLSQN

Consider `CC(=O)NC1C(O)CC(O)(C(=O)O)OC1[C@H](O)[C@H](O)CO` (stereo partly shown), for which the IC50 in data set [1], in data set [2] and in data set [3] was over 2 mM each time.
As for `CC(=O)NC1C(N)C=C(C(=O)O)OC1[C@H](O)[C@H](O)CO` (stereo partly shown), the half-inhibitory concentration (IC50) in data set [1], in data set [2] and in data set [3] was over 2 mM in each case.
Take `CC1=NC2C(O)C=C(C(=O)O)OC2C(CC(=O)N[C@@H](C(N)=O)C2CCCCC2)O1` (stereo partly shown): the values for the IC50 in [1], in [2] and in data set [3] were 1.6 mM, over 2 mM and over 2 mM, respectively.
`CC(=O)NC1C(NC(=N)N)C=C(C(=O)O)OC1[C@H](OC(N)=O)[C@H](O)CO` (stereo partly shown): the values for the IC50 in data set [1], in data set [2] and in data set [3] were over 2 mM, 0.25 mM and over 2 mM, respectively.
Regarding `CC(=O)NC1C(O)C=C(C(=O)O)OC1[C@H](O)[C@H](O)CO` (stereo partly shown) [2-deoxy-2,3-dehydro-N-acetylneuraminic acid], in data set [1], the “Inhibition of Clostridium perfringens neuraminidase” value is “good inhibitor” and the IC50 was determined as 0.004 mM. In addition, in data set [2], the “Inhibition of Vibrio cholerae neuraminidase” value is on record as “good inhibitor”. Further, in data set [3], the IC50 came out at 0.31 mM and the “Inhibition of Salmonella typhimurium neuraminidase” value was “good inhibitor”. Further, the IC50 in [4] is 0.35 mM.
As for `CC(=O)NC1C(NC(=N)N)C=C(C(=O)O)OC1[C@H](O)[C@H](O)CO` (stereo partly shown) [4-guanidino-2-deoxy-2,3-didehydro-N-acetylneuraminic acid], in data set [2], the concentration for half-maximal inhibition (IC50) was 0.2 mM and the “Inhibition of Vibrio cholerae neuraminidase” value is on record as “inhibitor”. The molecule further had an IC50 in [3] of over 2 mM.
For the molecule `CC(=O)NC1C(O)CC(OP(=O)(O)OC[C@H]2O[C@@H](n3ccc(N)nc3=O)[C@@H](O)C2O)(C(=O)O)OC1[C@H](O)[C@H](O)CO` (stereo partly shown) [CMP-Neu5Ac, cytidine monophosphate N-acetylneuraminic acid], on α2,6-sialyltransferase [5], the Km was 45 µM. On α2,6-sialyltransferase [6], the IC50 is 0.085 mM.
`NC(=O)C(Cc1ccc(O)c([N+](=O)[O-])c1)NC(=O)Cc1cc(=O)oc2cc(O)ccc12` (stereo not shown) [Compound 41, 3-(4-Hydroxy-3-nitro-phenyl)-2-[2-(7-hydroxy-2-oxo-2H-chromen-4-yl)-acetylamino]-propionamide] had a melting point of 203 °C.
On the same count and under the same terms, with `NC(=O)C(Cc1ccc(O)c([N+](=O)[O-])c1)NC(=O)CCC(=O)NCCOCCOCCNC(=O)Cc1cc(=O)oc2cc(O)ccc12` (stereo not shown) [Compound 42, N-[1-Carbamoyl-2-(4-hydroxy-3-nitro-phenyl)-ethyl]-N′-[2-(2-{2-[2-(7-hydroxy-2-oxo-2H-chromen-4-yl)-acetylamino]-ethoxy}-ethoxy)-ethyl]-succinamide] the figure was 115 °C.
As to `N[C@@H](Cc1ccc(O)c([N+](=O)[O-])c1)C(=O)NCCO[C@@H]1O[C@H](CO)[C@@H](O[C@@H]2O[C@H](CO)[C@H](O)[C@H](O)[C@H]2O)[C@H](O)[C@H]1O` [acceptor 64, 2-(3-Nitro-L-tyrosyl-amide)ethyl β-D-galactopyransyl-(1→4)-O-β-D-glucopyranoside], on α2,6-sialyltransferase [7], the “Substrate recognition by α2,6-sialyltransferase” value is reported as “poor substrate recognition”. Also, the “Substrate recognition by α2,3-sialyltransferase” value in the data set with α2,3-sialyltransferase is “poor substrate recognition”.
For `CC(=O)N[C@H]1[C@H](OCCNC(=O)[C@@H](N)Cc2ccc(O)c([N+](=O)[O-])c2)O[C@H](CO)[C@@H](O[C@@H]2O[C@H](CO)[C@H](O)[C@H](O)[C@H]2O)[C@@H]1O` [acceptor 69, 2-(3-Nitro-L-tyrosyl-amide)ethyl β-D-galactopyransyl-(1→4)-O-2-acetamido-2-deoxy-β-D-glucopyranoside], the “Substrate recognition by α2,6-sialyltransferase” value on α2,6-sialyltransferase [7] is on record as “good substrates”. In the data set with α2,3-sialyltransferase, the “Substrate recognition by α2,3-sialyltransferase” value is “good substrates”.
Take “CMP-5-(7-hydroxy-4-coumarinyl-acetamido)-NeuAc [donor 55]”: the “Substrate recognition by α2,6-sialyltransferase” value at α2,6-sialyltransferase [7] is listed as “good substrates”. For the same molecule, the “Substrate recognition by α2,3-sialyltransferase” value with α2,3-sialyltransferase was “good substrates”.

(Values after patent US7527934B2, “Labeled substrate conjugates for identifying enzyme inhibitors” (priority 2004, dated 2009).)
